For 28 molecules, TGI and GI50 results are on record in PubChem BioAssay (NCI).

“And” between values parts separate entries of the source, which are not always exact repeats. Equal values may be shown once.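 Five concentrations, 48 hours, 96-well plates. At the GI50, growth is halved. TGI: concentration producing complete growth inhibition.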

One assay relates to M14 melanoma. Put plainly: NCI-60 cell line screen, 48 h.
As to `O=C1c2ccccc2N2OC3(N4CCCC4)CCCC3C12c1ccccc1` (configuration not stated), the TGI was over 100 µM.

In turn, `COc1ccc(C2C(Cl)C(=O)N2n2cnc3ccccc3c2=O)cc1OC` (configuration not stated) showed a TGI of over 100 µM.

In the case of `Nc1nc2c(ncn2Cc2ccccc2CCO)c(=O)[nH]1`, the TGI was over 100 µM.

For the molecule `CCC1(Br)C(=O)NC(=O)N(C2CC(O)C(CO)O2)C1N=[N+]=[N-]` (configuration not stated), the TGI is over 100 µM.

In turn, `O=[N+]([O-])c1ccc(N=Nc2c(O)[nH]c3ccc([N+](=O)[O-])cc23)cc1` yielded a TGI of 38 µM.

`CC12CC3(C)CC(C)(C1)CC(N=[N+]=[N-])(C2)C3` came in with a TGI of over 100 µM.

As for `N=C(N)SCc1cn2ccccc2n1`, the TGI was over 100 µM.

On to `Clc1ccc([O][In]([O]c2ccc(Cl)cn2)[O]c2ccc(Cl)cn2)nc1`, for which the GI50 is over 100 µM and the TGI is over 100 µM.

Turning to `Fc1cccc(Cl)c1C1SCc2nc3ccccc3n21` (configuration not stated), the TGI was over 100 µM.

Molecule `COc1cc2nncc(Sc3cnnc4ccccc34)c2cc1OC` displayed a TGI of over 100 µM.

`COC(=O)C1=CCON(c2ccccc2)C1c1ccccc1` (configuration not stated) showed a TGI of over 100 µM.

The molecule `CC(=O)N(CCN)CCN` displayed a TGI of over 10 µM.

On to `Cc1cc(O)c2c(c1)C(O)(c1ccc3c(c1O)C(=O)c1c(O)cc(C)cc1C3(O)C1OC(CO)C(O)C(O)C1O)c1cccc(O)c1C2=O` (configuration not stated), for which the TGI is 30 µM.

In turn, `COC(=O)c1nc(NN)[nH]c(=O)c1CCCCCc1c(C(=O)OC)[nH]c(NN)cc1=O` had a TGI of over 100 µM.

In the case of `CC1(C)C(=O)C(O)=CC2C1=CCC1C2(C)C(=O)CC2(C)C(C(C)(O)C(=O)CC(O)C(C)(C)O)C(O)CC12C` (configuration not stated), the TGI was 23.8 µM.

The molecule `CCc1ccccc1NC(=O)C(=O)C(C(=O)c1ccc(OC)cc1)c1ccc(OC)cc1` (configuration not stated) returned a TGI of over 100 µM.

Take `C/C(=N/N(C=O)C[n+]1ccccc1)C(CN(CC(C)C)CC(C)C)C(=O)Nc1ccc(C)cc1C` (configuration not stated): the TGI is over 100 µM.

In the case of `O=C(c1ccccc1)c1c(CC(O)c2cccnc2)n(C(=O)c2ccccc2)c2ccccc12` (configuration not stated), the TGI worked out at 33.5 µM.

`C=C(C)C1CC2C(C)=C(OC(C)=O)C1n1c(=O)c3cc4ccccc4cc3c(=O)n12` (configuration not stated) gave a TGI of over 100 µM.

The molecule `COc1ccc(C(C2=C(C)C(=O)c3ccccc3C2=O)c2ccc(C(C)C)cc(=O)c2O)cc1` (configuration not stated) registered a TGI of 6.24 µM.

As to `CC(C)N(C(=O)C12C3C4C1C1C2C3C41C(O)C(C)(C)C)C(C)C` (configuration not stated), the TGI is over 50 µM.

With `Clc1ccc(COC(Cn2ccnc2)c2ccc(Cl)cc2Cl)cc1` (configuration not stated), the GI50 is 2.92 µM; the TGI was 10.2 µM and 29.8 µM and 26.2 µM.

In the case of `COC(=O)C1=C(OC(=O)c2ccc(Cl)cc2)C(C(=O)OC)[C@@]2(O)[C@@H](C(=O)OC)C(c3ccccc3C(F)(F)F)C[C@@H]1[C@@H]2C(=O)OC` (some centres not stated), the GI50 is 3.16 µM and the TGI was found to be 13 µM.

`Nc1c(C(=O)Nc2ccc([As](=O)(O)O)cc2)cnc2nnnn12` registered a TGI of over 100 µM.

As for `CC(C)n1c(/C=C/[C@@H](O)C[C@@H](O)CC(=O)O)c(-c2ccc(F)cc2)c2ccccc21`, the GI50 is 19.4 µM and 11.9 µM; the TGI was over 100 µM.

Turning to `N#CC(C#N)SCc1ccccc1`, the TGI was over 100 µM.

Regarding `CCOc1ccc(NCC2CC/C(=C\C=C\c3ccccc3)C2=O)cc1` (configuration not stated), the TGI came out at 29.6 µM.

As to `Cc1cc(N(CCNc2ccnc3cc(Cl)ccc23)Cc2ccc3c(c2)OCO3)nc(N2CCN(C)CC2)n1`, the GI50 was 1.89 µM and the TGI is 3.55 µM.

The next assay relates to DLD-1 colon. The assay can be described thus: NCI-60 cell line screen, 48 h.
Molecule `O=C1c2ccccc2N2OC3(N4CCCC4)CCCC3C12c1ccccc1` (configuration not stated) had a TGI of over 100 µM.

Regarding `CCC1(Br)C(=O)NC(=O)N(C2CC(O)C(CO)O2)C1N=[N+]=[N-]` (configuration not stated), the TGI was over 100 µM.

For the molecule `O=[N+]([O-])c1ccc(N=Nc2c(O)[nH]c3ccc([N+](=O)[O-])cc23)cc1`, the TGI is over 100 µM.

`CC12CC3(C)CC(C)(C1)CC(N=[N+]=[N-])(C2)C3` showed a TGI of over 100 µM.

Take `N=C(N)SCc1cn2ccccc2n1`: the TGI is over 100 µM.

In the case of `Clc1ccc([O][In]([O]c2ccc(Cl)cn2)[O]c2ccc(Cl)cn2)nc1`, the GI50 was over 100 µM and the TGI was over 100 µM.

Take `Fc1cccc(Cl)c1C1SCc2nc3ccccc3n21` (configuration not stated): the TGI was over 100 µM.

Turning to `COc1cc2nncc(Sc3cnnc4ccccc34)c2cc1OC`, the TGI turned out to be 49.6 µM.

`COC(=O)C1=CCON(c2ccccc2)C1c1ccccc1` (configuration not stated) registered a TGI of over 100 µM.

In turn, `CC(=O)N(CCN)CCN` registered a TGI of over 100 µM.

For the molecule `Cc1cc(O)c2c(c1)C(O)(c1ccc3c(c1O)C(=O)c1c(O)cc(C)cc1C3(O)C1OC(CO)C(O)C(O)C1O)c1cccc(O)c1C2=O` (configuration not stated), the TGI was 23.7 µM.

The molecule `COC(=O)c1nc(NN)[nH]c(=O)c1CCCCCc1c(C(=O)OC)[nH]c(NN)cc1=O` yielded a TGI of over 100 µM.

As to `CC1(C)C(=O)C(O)=CC2C1=CCC1C2(C)C(=O)CC2(C)C(C(C)(O)C(=O)CC(O)C(C)(C)O)C(O)CC12C` (configuration not stated), the TGI is over 74.6 µM.

Regarding `CCc1ccccc1NC(=O)C(=O)C(C(=O)c1ccc(OC)cc1)c1ccc(OC)cc1` (configuration not stated), the TGI was over 100 µM.

On to `C/C(=N/N(C=O)C[n+]1ccccc1)C(CN(CC(C)C)CC(C)C)C(=O)Nc1ccc(C)cc1C` (configuration not stated), for which the TGI is over 100 µM.

Regarding `C=C(C)C1CC2C(C)=C(OC(C)=O)C1n1c(=O)c3cc4ccccc4cc3c(=O)n12` (configuration not stated), the TGI was over 100 µM.

The molecule `COc1ccc(C(C2=C(C)C(=O)c3ccccc3C2=O)c2ccc(C(C)C)cc(=O)c2O)cc1` (configuration not stated) returned a TGI of 18.4 µM.

In turn, `N#CC(C#N)SCc1ccccc1` gave a TGI of over 100 µM.

In another assay the test system is RXF 393 renal. The assay can be described thus: NCI-60 cell line screen, 48 h.
`O=C1c2ccccc2N2OC3(N4CCCC4)CCCC3C12c1ccccc1` (configuration not stated) registered a TGI of over 100 µM.

The molecule `COc1ccc(C2C(Cl)C(=O)N2n2cnc3ccccc3c2=O)cc1OC` (configuration not stated) yielded a TGI of over 100 µM.

`Nc1nc2c(ncn2Cc2ccccc2CCO)c(=O)[nH]1` returned a TGI of over 100 µM.

As for `CCC1(Br)C(=O)NC(=O)N(C2CC(O)C(CO)O2)C1N=[N+]=[N-]` (configuration not stated), the TGI was over 100 µM.

Molecule `O=[N+]([O-])c1ccc(N=Nc2c(O)[nH]c3ccc([N+](=O)[O-])cc23)cc1` came in with a TGI of 36.5 µM.

`CC12CC3(C)CC(C)(C1)CC(N=[N+]=[N-])(C2)C3`: the TGI was over 100 µM.

As for `Clc1ccc([O][In]([O]c2ccc(Cl)cn2)[O]c2ccc(Cl)cn2)nc1`, the GI50 is over 100 µM and the TGI was over 100 µM.

With `Fc1cccc(Cl)c1C1SCc2nc3ccccc3n21` (configuration not stated), the TGI is over 100 µM.

Take `COC(=O)C1=CCON(c2ccccc2)C1c1ccccc1` (configuration not stated): the TGI is over 100 µM.
